In patent US20070031356A1, “Beta-carotene modulation of gene expression” (priority 2005, published 2007):
Where “and” joins values, the source holds several entries; their conditions need not be identical. Equal values may be shown once. Entries after “also recorded” stand apart in the source; their conditions may differ.

Key:
[1] = system: HaCaT human keratinocytes; assay: Affymetrix GeneChip microarray, gene regulation by β-carotene and/or UVA; format: cell-based
Method: UVA exposure is thought to cause skin aging mainly by singlet oxygen (^1O2)-dependent pathways. Using microarray hybridization the effect of pretreatment with the ^1O2 quencher β-carotene (1.5 μM) on prevention of UVA-induced gene regulation in HaCaT human keratinocytes was explored.
The cell culture experiments were carried out as described (Wertz, 2004). Briefly, a subclone of passage 65 HaCaT keratinocytes, selected for differentiation capacity, was used at passages 16 to 23 after subcloning. 2×10^5 cells were seeded per 60 millimeter dish. Starting the following day, the cells were pretreated for 2 days with β-carotene at 1.5 μM, a typical concentration in human plasma after moderate dietary supplementation (Thurmann, 2002).
(§1) β-carotene-containing medium was prepared as follows. Fresh all-E-β-carotene (DSM Nutritional Products, Kaiseraugst, Switzerland) stock solution in THF (containing 0.025% BHT; Fluka Chemie AG, Switzerland) was diluted 1:2 with ethanol and added to cell culture medium to a final concentration of 1.5 μM β-carotene. The solvent concentration in the medium was 0.5% for all treatments. β-carotene-containing medium was prepared fresh for the daily medium changes.
On day 3 of the experiment, the cells were irradiated with a Hönle sun lamp Sol 500 (270 kJ/m^2; Dr. Hönle, Germany).
Five independent, factorially designed cell irradiation experiments were analyzed by microarray hybridization. For each experiment, one chip was hybridized per treatment condition. GeneChip® analysis was done as described in Siler, 2004, which is incorporated by reference as if recited in full herein. Gene regulation by β-carotene and/or UVA was calculated relative to placebo.
Changes in gene expression were included in further analysis only if the change factor was ≧0.5 or ≦−0.5, and if unpaired t-tests yielded p values ≦0.05. Upregulations by a change factor of ≧0.5 are labeled bold, downregulations by a change factor of ≦−0.5 are labeled bold italics. (Table 1.) To identify the pathways affected by the treatments functional information on the genes was retrieved from public literature databases.

[2] = system: HaCaT cells; assay: TaqMan QRT-PCR of key genes; format: cell-based, human
Method: Cells were supplemented with β-carotene for 2 days prior to UVA irradiation (270 kJ/m^2) either in normal PBS or D2O-PBS. Gene expression 5 hours after irradiation was determined by quantitative real time polymerase chain reaction. (“QRT-PCR”). Values are geometric mean±standard error of three experiments.
Key gene regulation was confirmed in three independent cell irradiation experiments using TaqMan® QRT-PCR as described (Wertz, 2004). In these experiments, cells were pretreated with 0.5, 1.5, or 3 μM β-carotene, to analyze for dose-dependent β-carotene effects. In addition, cells were irradiated either in D2O-containing PBS or in H2O-containing PBS, to analyze for the ^1O2 inducibility of genes.

[3] = system: caspase-3; assay: Caspase-3 activity (CaspACE Assay System); format: cell-based, human
Method: Cells were supplemented with β-carotene for 2 days and prior to UVA irradiation (270 kJ/m^2). Caspase-3 activity was determined at 5 hours after irradiation. Values are mean±standard error of an experiment with four replicates.
Caspase-3 activity 5 hours after UVA irradiation was quantified in five separate experiments using the CaspACE™ Assay System (Promega/Catalys, Switzerland).

[4] = β-carotene concentration in culture medium during incubation; format: physicochemical; details: during the 24 hours of incubation, irrespective of the presence of cells
Method: as §1

[5] = system: HaCaT cells; details: cited from earlier work
[6] = cited from earlier work
[7] = β-carotene supplementation, rodents (e.g. Mathews-Roth, 1982); cited from earlier work
[8] = UVA 270 kJ/m^2 after 1.5 μM 2 days, vs placebo
[9] = unirradiated, 1.5 μM 2 days, vs placebo
[10] = UVA 270 kJ/m^2, 5 hours after irradiation

SMILES: CC1=C(/C=C/C(C)=C/C=C/C(C)=C/C=C/C=C(C)/C=C/C=C(C)/C=C/C2=C(C)CCCC2(C)C)C(C)(C)CCC1 [β-Carotene, all-E-β-carotene]
- BPAG1; bullous pemphigoid antigen (M69225) change factor [1, 8]: Downregulation
- C-FOS (V01512) change factor [1, 8]: 1.36
- ERF-2 (X78992) change factor [1, 8]: enhanced
- GADD34 (U83981) change factor [1, 8]: enhanced
- GADD153 (S62138) change factor [1, 8]: upregulation; also recorded: enhanced
- IGF-BP 3; insulin-like growth factor-binding protein-3 gene (M35878) change factor [1, 8]: 1.73
- IL6; Interleukin 6; IFNβα2a (X04430) change factor [1, 8]: enhanced
- ILK; integrin-linked kinase (U40282) change factor [1, 8]: Downregulation
- JUND (X56681) change factor [1, 8]: 1.83 and 1.66
- KLF4; EZF (epithelial Zn finger) (U70663) change factor [1, 8]: upregulation
- Lekti (AJ228139) change factor [1, 8]: upregulated
- MMP10 (X07820) change factor [1, 8]: inhibited
- PAR-2; proteinase activated receptor-2 (U34038) change factor [1, 8]: 1.34
- TDAG51; PQ-rich protein; PHLDA1 (Z50194) change factor [1, 8]: enhanced
- TRIP14; ′2-5′ oligoadenylate synthetase (AJ225089) change factor [1, 8]: 0.67
- c-myc (V00568) change factor [1, 8]: 2.45
- connexin 31 (AF099730) change factor [1, 8]: upregulation
- connexin 45 (U03493) change factor [1, 8]: Downregulation
- integrin α6 (X53586) change factor [1, 8]: Downregulation
- serpinB1 (M93056) change factor [1, 8]: upregulated
- number of genes regulated by co-treatment with UVA radiation and β-carotene ([1]; UVA + β-carotene): 1142 genes
- UVA induction of PAR-2 ([1]; UVA-irradiated keratinocytes): further increased
- UVA upregulation of IFNα/Iβ targets ([1]; UVA-irradiated keratinocytes): reduced
- UVA upregulation of VEGF ([1]; UVA-irradiated keratinocytes): reduced
- desmocollins gene regulation ([1]; UVA/β-carotene treatment): Downregulation
- TIMP-1 gene regulation ([1]; all treatments): not influenced
- UVA-regulated genes for which β-carotene enhanced the UVA effect ([1]; of 568 UVA-regulated genes): 180 genes
- UVA-regulated genes for which β-carotene had no effect ([1]; of 568 UVA-regulated genes): 245 genes
- UVA-regulated genes for which β-carotene reduced the UVA-induced effect ([1]; of 568 UVA-regulated genes): 143 genes
- co-treatment-regulated genes not regulated by only UVA or β-carotene alone ([1]; of the 1142 genes): 610 genes
- Bax gene regulation ([1]; unirradiated keratinocytes): upregulated
- JUN-B gene regulation ([1]; unirradiated keratinocytes): downregulated
- VEGF gene regulation ([1]; unirradiated keratinocytes): mildly downregulated
- BMP2a; bone morphogenetic protein 2a (bmp-2a) (M22489) change factor [1, 9]: downregulated
- BPAG1; bullous pemphigoid antigen (M69225) change factor [1, 9]: decreased
- BUB1; mitotic checkpoint kinase (AF053305) change factor [1, 9]: downregulated
- COX-2, cyclooxygenase-2 (U04636) change factor [1, 9]: mildly downregulated
- DNA ligase III (X84740) change factor [1, 9]: downregulated
- EGFR; precursor of epidermal growth factor receptor (X00588) change factor [1, 9]: downregulated
- ENDOGL-2 (AB020735) change factor [1, 9]: upregulated
- FRA-2 (X16706) change factor [1, 9]: downregulated
- GEM (U10550) change factor [1, 9]: downregulated
- HOXD4 (X59373) change factor [1, 9]: downregulated
- ID-2H (D13891) change factor [1, 9]: downregulated
- IGF-BP 3; insulin-like growth factor-binding protein-3 gene (M35878) change factor [1, 9]: 0.22
- IL6; Interleukin 6; IFNβα2a (X04430) change factor [1, 9]: upregulated
- IL18; IGIF (IFNγ inducing factor) (D49950) change factor [1, 9]: downregulated
- IRF-9; p48; ISGF3γ; Interferon-stimulated transcription factor 3γ (M97935) change factor [1, 9]: −0.18
- KRS-2; stress responsive serine/threonine protein kinase (U60207) change factor [1, 9]: downregulated
- MMP10 (X07820) change factor [1, 9]: reduced
- NCF2; p67-phox; neutrophil oxidase factor (M32011) change factor [1, 9]: downregulated
- NOTCH3 (U97669) change factor [1, 9]: downregulated
- NRF2, subunit beta 1 (U13045) change factor [1, 9]: downregulated
- RETSDR1; retinal short-chain dehydrogenase/reductase (AF061741) change factor [1, 9]: induced
- RPA; replication protein A 14kda subunit (rpa) (L07493) change factor [1, 9]: −0.04
- Requiem (AF001433) change factor [1, 9]: upregulated
- SMAD1 (U59423) change factor [1, 9]: −0.27
- TIEG, EGRα (AF050110) change factor [1, 9]: downregulated; also recorded: downregulation
- TLR3; toll-like receptor 3 (U88879) change factor [1, 9]: upregulated
- TRIP14; ′2-5′ oligoadenylate synthetase (AJ225089) change factor [1, 9]: −0.07
- TSSC3/IPL (AF001294) change factor [1, 9]: downregulation
- WNT5A (I20861) change factor [1, 9]: downregulated
- collagen type IV, α-5 (COL4A5) (M58526) change factor [1, 9]: decreased
- integrin α6 (X53586) change factor [1, 9]: decreased
- keratin 15 (J00124) change factor [1, 9]: decreased
- number of genes regulated by β-carotene ([1]; β-carotene alone, change factor ≧0.5 or ≦−0.5, p ≦0.05): 381 genes
- UVA-induced GADD34 transcription (QRT-PCR) [2, 10]: enhancement
- UVA-induced GADD153 transcription (QRT-PCR) [2, 10]: enhancement
- MMP-10 induction by UVA/D2O ([2]; UVA/D2O): dose-dependently inhibited
- integrinα6 transcription (QRT-PCR) ([2]; irradiated and unirradiated HaCaT cells, 5 hours after irradiation): confirmed downregulation; also recorded: inhibition
- caspase-3 activity / apoptosis ([3]; unirradiated cells, β-carotene alone): not sufficient to induce apoptosis; also recorded: Neither UVA nor β-carotene alone activated caspase-3
- caspase-3 activity ([3]; β-carotene 2 days then UVA 270 kJ/m^2, 5 hours after irradiation): dose-dependent induction of caspase-3 activity
- β-carotene concentration in medium dropped to [4]: approximately 50%
- UVA induction of MMP-3 ([5]; (Wertz, 2004)): downregulated
- basal and 1O2-induced expression of MMP-1 ([5]; (Wertz, 2004)): reduced
- basal MMP-1 expression ([5]; unirradiated (Wertz, 2004)): mildly reduces
- basal expression of MMP-10, QRT-PCR in independent experiments ([5]; unirradiated (Wertz, 2004)): confirmed
- UV-induced immune suppression ([6]; (Fuller, 1992)): prevents
- number of sunburn cells ([6]; β-carotene supplementation, humans (Garmyn, 1995)): did not alter
- sunburn erythema after sun exposure ([6]; β-carotene supplementation, literature studies): alleviates; also recorded: mild reduction; also recorded: mildly reduces
- skin carcinogenesis [7]: reduced
